# Experimental data from patent US9833497B2, “Human originated EGF domain proteins and use of the same” (CHENGDU SOURCEBIO LIMITED-LIABILITY COMPANY, priority 2013, dated 2017).
# System: Proteus vulgaris
# Test: MIC against Gram-negative bacteria: Proteus vulgaris
# Assay type: cell-based
# Conditions: 10 h cultivation at 37° C., 5×10^5 CFU/mL, two-fold serial dilution
# How it was run: (§1)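 Broth microdilution, LB medium, final inoculum 5×10^5 CFU/mL from McFarland 0.5 cultures. Recombinant human EGF domain proteins tested in two-fold steps, n=3. MIC: lowest concentration, no growth.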
row,Substance,MIC P. vulgaris [µg/mL]
1,PRT1103 (DHDECASSPCQNGAVCQDGIDGYSCFCVPGYQGRHCD; listed as Homo sapiens),25
2,PRT1051 (EQKLCKLRKGNCSSTVCGQDLQSHLCMCAEGYALSRDRKYCE; listed as Homo sapiens),12.5

# Same assay, conditions: P. vulgaris; 10 h cultivation at 37° C.
row,Substance,MIC [µg/mL]
1,PRT930 (NFDDCASNPCIHGICMDGINRYSCVCSPGFTGQRCN; listed as Homo sapiens),12.5

# System: E. coli BL21
# Test: MIC against Gram-negative bacteria: E. coli BL21
# Assay type: cell-based
# Conditions: 10 h cultivation at 37° C., 5×10^5 CFU/mL, two-fold serial dilution
# How it was run: as §1
row,Substance,MIC E. coli BL21 [µg/mL]
1,PRT1103 (DHDECASSPCQNGAVCQDGIDGYSCFCVPGYQGRHCD; listed as Homo sapiens),25
2,PRT1051 (EQKLCKLRKGNCSSTVCGQDLQSHLCMCAEGYALSRDRKYCE; listed as Homo sapiens),12.5

# Same assay, conditions: E. coli BL21; 10 h cultivation at 37° C.
row,Substance,MIC [µg/mL]
1,PRT930 (NFDDCASNPCIHGICMDGINRYSCVCSPGFTGQRCN; listed as Homo sapiens),12.5

# System: E. coli DH5α
# Test: Antibacterial activity: MIC and growth curve against E. coli DH5α in 96-well plate
# Assay type: cell-based
# Conditions: minimal inhibitory concentration against E. coli DH5α; 96-well plate, 5×10^5 CFU/mL, 37° C., judged after 8 h
# How it was run: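 Log-phase bacteria (OD600 ~0.5) resuspended in LB at 5×10^5 CFU/mL, exposed to recombinant protein at 50, 25, 12.5 μg/mL final in triplicate, 37 °C shaking at 175 rpm. OD600 read every 30 min; MIC is lowest concentration showing no growth.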
row,Substance,MIC [µg/mL]
1,PRT1103 (DHDECASSPCQNGAVCQDGIDGYSCFCVPGYQGRHCD; listed as Homo sapiens),12.5
2,PRT930 (NFDDCASNPCIHGICMDGINRYSCVCSPGFTGQRCN; listed as Homo sapiens),50
3,PRT1051 (EQKLCKLRKGNCSSTVCGQDLQSHLCMCAEGYALSRDRKYCE; listed as Homo sapiens),50

# System: Citrobacter diversus
# Test: MIC against Gram-negative bacteria: Citrobacter diversus
# Assay type: cell-based
# Conditions: 10 h cultivation at 37° C., 5×10^5 CFU/mL, two-fold serial dilution
# How it was run: as §1
row,Substance,MIC C. diversus [µg/mL]
1,PRT1103 (DHDECASSPCQNGAVCQDGIDGYSCFCVPGYQGRHCD; listed as Homo sapiens),12.5
2,PRT1051 (EQKLCKLRKGNCSSTVCGQDLQSHLCMCAEGYALSRDRKYCE; listed as Homo sapiens),12.5

# Same assay, conditions: C. diversus; 10 h cultivation at 37° C.
row,Substance,MIC [µg/mL]
1,PRT930 (NFDDCASNPCIHGICMDGINRYSCVCSPGFTGQRCN; listed as Homo sapiens),25

# System: Pseudomonas aeruginosa
# Test: MIC against Gram-negative bacteria: Pseudomonas aeruginosa
# Assay type: cell-based
# Conditions: 10 h cultivation at 37° C., 5×10^5 CFU/mL, two-fold serial dilution
# How it was run: as §1
row,Substance,MIC P. aeruginosa [µg/mL]
1,PRT1103 (DHDECASSPCQNGAVCQDGIDGYSCFCVPGYQGRHCD; listed as Homo sapiens),12.5
2,PRT1051 (EQKLCKLRKGNCSSTVCGQDLQSHLCMCAEGYALSRDRKYCE; listed as Homo sapiens),25

# Same assay, conditions: P. aeruginosa; 10 h cultivation at 37° C.
row,Substance,MIC [µg/mL]
1,PRT930 (NFDDCASNPCIHGICMDGINRYSCVCSPGFTGQRCN; listed as Homo sapiens),25

# System: Klebsiella pneumonia
# Test: MIC against Gram-negative bacteria: Klebsiella pneumonia
# Assay type: cell-based
# Conditions: 10 h cultivation at 37° C., 5×10^5 CFU/mL, two-fold serial dilution
# How it was run: as §1
row,Substance,MIC K. pneumonia [µg/mL]
1,PRT1103 (DHDECASSPCQNGAVCQDGIDGYSCFCVPGYQGRHCD; listed as Homo sapiens),25
2,PRT1051 (EQKLCKLRKGNCSSTVCGQDLQSHLCMCAEGYALSRDRKYCE; listed as Homo sapiens),12.5

# Same assay, conditions: K. pneumonia; 10 h cultivation at 37° C.
row,Substance,MIC [µg/mL]
1,PRT930 (NFDDCASNPCIHGICMDGINRYSCVCSPGFTGQRCN; listed as Homo sapiens),50

# System: Moraxella catarrhalis
# Test: MIC against Gram-negative bacteria: Moraxella catarrhalis
# Assay type: cell-based
# Conditions: 10 h cultivation at 37° C., 5×10^5 CFU/mL, two-fold serial dilution
# How it was run: as §1
row,Substance,MIC M. catarrhalis [µg/mL]
1,PRT1103 (DHDECASSPCQNGAVCQDGIDGYSCFCVPGYQGRHCD; listed as Homo sapiens),25
2,PRT1051 (EQKLCKLRKGNCSSTVCGQDLQSHLCMCAEGYALSRDRKYCE; listed as Homo sapiens),12.5

# Same assay, conditions: M. catarrhalis; 10 h cultivation at 37° C.
row,Substance,MIC [µg/mL]
1,PRT930 (NFDDCASNPCIHGICMDGINRYSCVCSPGFTGQRCN; listed as Homo sapiens),50

# System: Enterobacter cloacae
# Test: MIC against Gram-negative bacteria: Enterobacter cloacae
# Assay type: cell-based
# Conditions: 10 h cultivation at 37° C., 5×10^5 CFU/mL, two-fold serial dilution
# How it was run: as §1
row,Substance,MIC E. cloacae [µg/mL]
1,PRT1103 (DHDECASSPCQNGAVCQDGIDGYSCFCVPGYQGRHCD; listed as Homo sapiens),50
2,PRT1051 (EQKLCKLRKGNCSSTVCGQDLQSHLCMCAEGYALSRDRKYCE; listed as Homo sapiens),25

# Same assay, conditions: E. cloacae; 10 h cultivation at 37° C.
row,Substance,MIC [µg/mL]
1,PRT930 (NFDDCASNPCIHGICMDGINRYSCVCSPGFTGQRCN; listed as Homo sapiens),12.5

# System: Proteus mirabilis
# Test: MIC against Gram-negative bacteria: Proteus mirabilis
# Assay type: cell-based
# Conditions: 10 h cultivation at 37° C., 5×10^5 CFU/mL, two-fold serial dilution
# How it was run: as §1
row,Substance,MIC P. mirabilis [µg/mL]
1,PRT1103 (DHDECASSPCQNGAVCQDGIDGYSCFCVPGYQGRHCD; listed as Homo sapiens),50
2,PRT1051 (EQKLCKLRKGNCSSTVCGQDLQSHLCMCAEGYALSRDRKYCE; listed as Homo sapiens),50

# Same assay, conditions: P. mirabilis; 10 h cultivation at 37° C.
row,Substance,MIC [µg/mL]
1,PRT930 (NFDDCASNPCIHGICMDGINRYSCVCSPGFTGQRCN; listed as Homo sapiens),25

# System: Aeromonas hydrophila
# Test: MIC against Gram-negative bacteria: Aeromonas hydrophila
# Assay type: cell-based
# Conditions: 10 h cultivation at 37° C., 5×10^5 CFU/mL, two-fold serial dilution
# How it was run: as §1
row,Substance,MIC A. hydrophila [µg/mL]
1,PRT1103 (DHDECASSPCQNGAVCQDGIDGYSCFCVPGYQGRHCD; listed as Homo sapiens),25
2,PRT1051 (EQKLCKLRKGNCSSTVCGQDLQSHLCMCAEGYALSRDRKYCE; listed as Homo sapiens),12.5

# Same assay, conditions: A. hydrophila; 10 h cultivation at 37° C.
row,Substance,MIC [µg/mL]
1,PRT930 (NFDDCASNPCIHGICMDGINRYSCVCSPGFTGQRCN; listed as Homo sapiens),25

# System: Serratia marcescens
# Test: MIC against Gram-negative bacteria: Serratia marcescens
# Assay type: cell-based
# Conditions: 10 h cultivation at 37° C., 5×10^5 CFU/mL, two-fold serial dilution
# How it was run: as §1
row,Substance,MIC S. marcescens [µg/mL]
1,PRT1103 (DHDECASSPCQNGAVCQDGIDGYSCFCVPGYQGRHCD; listed as Homo sapiens),12.5
2,PRT1051 (EQKLCKLRKGNCSSTVCGQDLQSHLCMCAEGYALSRDRKYCE; listed as Homo sapiens),50

# Same assay, conditions: S. marcescens; 10 h cultivation at 37° C.
row,Substance,MIC [µg/mL]
1,PRT930 (NFDDCASNPCIHGICMDGINRYSCVCSPGFTGQRCN; listed as Homo sapiens),50
